Assay results reported in PMC9102502, “The Influence of Selected Antipsychotic Drugs on Biochemical Aspects of Alzheimer’s Disease” (International Journal of Molecular Sciences, 2022).
Read-outs that look alike come from different tables or passages of the source.

Key:
[1] = tested on: AChE; details: read-out: IC50 AChE, cited from earlier work
[2] = tested on: BuChE; details: read-out: IC50 BuChE, cited from earlier work
[3] = molecular target: BuChE (Homo sapiens, UniProt P06276); assay: Kinetic parameters of enzymatic reaction (Hanes–Woolf), BuChE; assay type: biochemical; set-up: The solution of plasma 200-fold diluted with 0.9% NaCl; from tissue; host or cells: citrated plasma from blood of healthy human donors; details: for type of inhibition of BuChE: from Km(i), Vmax(i) vs Km, Vmax, mixed inhibition
Protocol: Kinetic parameters were obtained on the basis of three individual experiments carried out on different biological materials. For this purpose, various concentrations of substrates (ATC and BTC) were used in experiments. The type of inhibition and kinetic parameters of enzymatic reactions were obtained by linear regression using the Hanes–Woolf equations.
(§1) AChE SI (selectivity index) was calculated by using the following formula: SI = IC50 of BuChE/IC50 of AChE. However, BuChE SI was defined as IC50 of AChE/IC50 of BuChE. Maximal velocity (Vmax) and the Michaelis constant (Km) were calculated with the use of linear regression—according to the Hanes–Woolf plot.

[4] = molecular target: T1, human erythrocyte acetylcholinesterase (Homo sapiens, UniProt P22303); assay: AChE inhibition, modified Ellman's method; assay type: biochemical; details: for AChE reaction velocity: control 0.259 ± 0.013 A/min
T1 construct: solution of hemolyzed erythrocytes diluted 400-fold; from tissue; host or cells: hemolyzed erythrocytes from blood of healthy human donors
Protocol: (§2) The activity of both cholinesterases (AChE and BuChE) were assessed spectrophotometrically according to the Ellman’s method with some modifications by Worek et al.. This test development included experimental determination of the optimal testing conditions. For all measurements, 37 °C was used as the best temperature for enzymatic determinations in material of human origin.
(§3) The solution of plasma 200-fold diluted with 0.9% NaCl and solution of hemolyzed erythrocytes diluted 400-fold with 0.9% were incubated (37 °C, 15 min) with 5 μL DTNB (0.01 mol/L) and 10 μL tested compound at a wider range of concentration than the therapeutic range in order to assess the overall effect of the compound on human esterases (AChE and BuChE). The controls without antipsychotics, containing only DTNB and diluted plasma or diluted solution of hemolyzed erythrocytes, were prepared. […] The final volume of a sample was 500 μL. […] The maximal velocity of the reaction was determined on the basis of changes in absorbance over time.
as §1

[5] = molecular target: T2, human plasma butyrylcholinesterase (Homo sapiens, UniProt P06276); assay: BuChE inhibition, modified Ellman's method; assay type: biochemical; details: experimental data, mean ± SD, n = 6–9
T2 construct: The solution of plasma 200-fold diluted with 0.9% NaCl; from tissue; host or cells: citrated plasma from blood of healthy human donors
Protocol: as §2, §3, §1

[6] = molecular target: T3, recombinant human β-amyloid (1–42) (Homo sapiens, UniProt P05067); assay: Beta-amyloid aggregation, Thioflavin T fluorescence; assay type: biochemical; details: 24 and 48 h; both tested concentrations
T3 construct: recombinant human β-amyloid (1–42; ultrapure); purchased Sigma-Aldrich (St. Louis, MO, USA)
Protocol: Aβ42 peptide was dissolved in DMSO and left to hydrate for a few minutes. The solution was centrifuged at 10,000 rpm for 5 min at 4 °C to separate any precipitated material. The solution at a concentration of 220 μmol/L was stored in small aliquots at a temperature of −30 °C and before each experiment it was restored at 37 °C for 15 min. Test samples containing Aβ42 solution at the final concentration of 20 μmol/L was incubated with antipsychotics at concentrations equaling their TPC and 1/2 × TPC (v = 10 µL). The final volume of the test samples was 100 μL. The positive control constituted a sample of Aβ42 peptide, whereas the negative control contained tannic acid at the final concentrations of 0.1 µmol/L and 10 µmol/L. The fibrillation reaction was set up by addition of thioflavin ThT dye at a concentration of 5 µmol/L. The fluorescence intensity was measured at room temperature with Ex/Em = 440 nm/484 nm (Synergy H1; BioTek, Winooski, VT, USA). The measurements of fluorescence intensity expressed as relative fluorescence units (RFU) were taken at 10, 30, 60 and 90 min and then after 24 and 48 h. The fluorescence intensity measured for control equaled 100% of Aβ aggregation and it was used to estimate the inhibitory properties of the tested antipsychotics.

[7] = tested on: human erythrocytes; assay: RBC hemolysis, compounds alone; assay type: cell-based; details: 2% human erythrocyte (RBC) suspension, read-out: increase of disintegration of the erythrocyte membrane (hemolysis)
Protocol: (§4) The blood samples were centrifuged (3000 rpm, 10 min, 20 °C, Micro 22 R centrifuge, Hettich Zentrifugen, Tuttlingen, Germany) to separate erythrocytes from the plasma and washed three times with 0.9% saline (NaCl). […] The erythrocytes were suspended in 0.9% saline. As control of basal hemolysis, erythrocytes were incubated with 0.9% NaCl. For total hemolysis control erythrocytes were incubated with 2.0% v/v Triton X-100. Incubation with Triton X-100 and K4[Fe(CN)6] (at concentration 50 g/L) was performed to control methemoglobin (MetHb) formation. Moreover, an antioxidant control containing ascorbic acid (AA) at a concentration of 10 µg/mL was prepared, while AAPH at a concentration of 50 mmol/L was an oxidizing agent. Antipsychotics at concentrations equaling their maximum therapeutic plasma concentrations (TPCmax), as well as 5-fold higher (5 × TPCmax) and 5-fold lower than TPCmax (1/5 × TPCmax), and the oxidizing agent AAPH at a concentration of 50 mmol/L, were added to 2% RBC suspension. Controls and tested samples were incubated at 37 °C. […] The percentage of hemolysis was calculated with the following formula:Hemolysis (%) = (Asample/Atotal hemolysis) × 100%(1) where Asample—absorbance of the test sample; Atotal hemolysis—the absorbance of the reference sample with 2% Triton X solution, corresponding to complete hemolysis.

[8] = tested on: human erythrocytes; assay: Methemoglobin formation in RBC, compounds alone; assay type: cell-based; details: 250 μg/L
Protocol: as §4

[9] = tested on: human erythrocytes; assay: Methemoglobin formation in RBC with AAPH; assay type: cell-based; details: 24 h, AAPH control 78.1%
Protocol: The blood samples were centrifuged (3000 rpm, 10 min, 20 °C, Micro 22 R centrifuge, Hettich Zentrifugen, Tuttlingen, Germany) to separate erythrocytes from the plasma and washed three times with 0.9% saline (NaCl). […] The erythrocytes were suspended in 0.9% saline. As control of basal hemolysis, erythrocytes were incubated with 0.9% NaCl. For total hemolysis control erythrocytes were incubated with 2.0% v/v Triton X-100. Incubation with Triton X-100 and K4[Fe(CN)6] (at concentration 50 g/L) was performed to control methemoglobin (MetHb) formation. Moreover, an antioxidant control containing ascorbic acid (AA) at a concentration of 10 µg/mL was prepared, while AAPH at a concentration of 50 mmol/L was an oxidizing agent. Antipsychotics at concentrations equaling their maximum therapeutic plasma concentrations (TPCmax), as well as 5-fold higher (5 × TPCmax) and 5-fold lower than TPCmax (1/5 × TPCmax), and the oxidizing agent AAPH at a concentration of 50 mmol/L, were added to 2% RBC suspension. Controls and tested samples were incubated at 37 °C. […] For each measurement, 0.5 mL samples were taken from incubated Eppendorf tubes and centrifuged (3000 rpm, 10 min). […] The percentage of hemolysis was calculated with the following formula:Hemolysis (%) = (Asample/Atotal hemolysis) × 100%(1) where Asample—absorbance of the test sample; Atotal hemolysis—the absorbance of the reference sample with 2% Triton X solution, corresponding to complete hemolysis.

[10] = tested on: astrocytes; assay: WST-1 viability under AAPH-induced oxidative stress, astrocytes; assay type: cell-based, human; details: benperidol 5 and 10 μg/L, penfluridol 12.5 μg/L, pimozide 15 μg/L, promazine 25 and 50 μg/L
Protocol: WST-1 assay (Takara, Takara Bio Europe, Saint-Germain-en-Laye, France) was used to assess the effects of antipsychotics on the growth of HUVEC and astrocytes. The experiments were conducted as described previously. HUVEC were seeded at a density of 7500 cells, and astrocytes at 5000 cells per well on 96-well microplates and cultured for 24 h followed by treatment with compounds at ½ × TPCmax and TPCmax or pure medium as a control (v = 100 μL) for another 24 h (37 °C, 5% CO2). Subsequently, the cells were washed with culture medium (100 μL) and WST-1 reagent diluted in medium (10 μL of reagent + 90 μL of medium) was added. The plates were incubated at 37 °C in 5% CO2 for another 90 min for HUVEC and 60 min for astrocytes. The absorbance was read at 450 nm using a microplate reader (iMARK, Bio-Rad, Hercules, CA, USA). The cells viability was expressed as a percentage of the control samples which constituted 100% viability.
Moreover, the WST-1 assay was used to evaluate potential protective effects of antipsychotics on the growth of HUVEC and astrocytes under conditions of AAPH-induced oxidative stress. The experimental conditions were the same as in viability studies. AA at the final concentration of 10 μg/mL was used as an antioxidant control. After reaching the confluence, the antipsychotics were added at concentrations equaling ½ × TPCmax and TPCmax. After 1 h incubation under standard conditions, 50 μL AAPH was added to the wells containing tested compounds or AA. The AAPH concentration was chosen on the basis of preliminary experiments—17.5 mmol/L in HUVEC experiments, and 15.0 mmol/L in the case of astrocytes.

[11] = reference values according to the literature ref 28
[12] = reference values according to the literature ref 31
[13] = reference values according to the literature ref 32
[14] = reference values according to the literature ref 33

BuChE, sequence (P06276 29-602): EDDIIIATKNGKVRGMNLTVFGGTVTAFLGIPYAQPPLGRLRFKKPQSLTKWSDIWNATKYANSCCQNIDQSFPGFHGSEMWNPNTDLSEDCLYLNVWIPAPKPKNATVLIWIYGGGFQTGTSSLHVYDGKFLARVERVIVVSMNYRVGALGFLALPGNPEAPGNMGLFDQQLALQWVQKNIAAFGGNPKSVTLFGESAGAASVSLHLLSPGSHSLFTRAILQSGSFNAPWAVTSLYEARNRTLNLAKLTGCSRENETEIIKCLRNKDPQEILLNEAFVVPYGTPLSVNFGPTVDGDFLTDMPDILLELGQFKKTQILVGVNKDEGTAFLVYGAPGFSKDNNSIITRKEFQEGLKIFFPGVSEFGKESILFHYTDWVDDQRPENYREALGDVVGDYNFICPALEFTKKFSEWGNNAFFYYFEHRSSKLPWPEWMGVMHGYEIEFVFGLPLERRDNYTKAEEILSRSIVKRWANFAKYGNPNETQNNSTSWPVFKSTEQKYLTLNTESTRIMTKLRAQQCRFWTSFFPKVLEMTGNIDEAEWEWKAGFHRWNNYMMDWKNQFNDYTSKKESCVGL
T1 sequence (P22303 32-617 isoform P22303-2 limits assumed): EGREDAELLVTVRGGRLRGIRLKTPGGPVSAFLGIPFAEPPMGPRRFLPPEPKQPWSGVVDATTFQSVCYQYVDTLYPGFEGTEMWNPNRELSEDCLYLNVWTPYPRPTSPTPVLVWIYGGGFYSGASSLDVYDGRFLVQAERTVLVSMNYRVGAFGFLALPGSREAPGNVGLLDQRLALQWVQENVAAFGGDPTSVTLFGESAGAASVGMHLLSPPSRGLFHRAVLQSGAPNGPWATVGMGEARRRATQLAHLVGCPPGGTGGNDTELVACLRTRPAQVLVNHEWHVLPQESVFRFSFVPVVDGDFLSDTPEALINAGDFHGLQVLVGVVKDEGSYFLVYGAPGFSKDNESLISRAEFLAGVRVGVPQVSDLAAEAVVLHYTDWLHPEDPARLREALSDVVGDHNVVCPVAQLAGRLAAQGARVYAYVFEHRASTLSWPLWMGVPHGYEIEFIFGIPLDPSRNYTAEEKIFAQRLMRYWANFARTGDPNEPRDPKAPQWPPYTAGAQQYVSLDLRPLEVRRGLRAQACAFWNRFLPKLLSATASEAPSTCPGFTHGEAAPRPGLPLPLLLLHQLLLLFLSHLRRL
T2 sequence (P06276 29-602): as the sequence (P06276 29-602) above
T3 sequence (P05067 672-713 limits assumed): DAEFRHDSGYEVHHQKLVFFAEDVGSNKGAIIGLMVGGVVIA

SMILES: CCN(C)C(=O)Oc1cccc([C@H](C)N(C)C)c1 [Rivastigmine, rivastigmine]
- Vmax(i) BuChE ([3]; compound at its IC50): 0.122 ± 0.003 A/min
- type of inhibition of BuChE [3]: noncompetitively

SMILES: CN(C)CCCN1c2ccccc2Sc2ccccc21 [Promazine, promazine]
- AChE reaction velocity ([4]; 100 µg/L): 0.245 ± 0.015 A/min
- AChE reaction velocity ([4]; 200 µg/L): 0.232 ± 0.016 A/min
- IC50 ([4]; theoretical values calculated on the basis of extrapolated plots): > 2 µM
- IC50 ([5]; IC50 BuChE): 0.186 µM
- IC50 ([5]; read-out: IC50 BuChE): 0.19 ± 0.02 µM
- effect on Aβ aggregation after a longer incubation time [6]: substantially inhibit
- hemolysis at 5 h, 250 μg/L ([7]; 5 h of incubation): > 45%
- hemolysis at 24 h, 250 μg/L ([7]; 24 h of incubation): > 59%
- formation of methemoglobin ([8]; 5 h of incubation): 39%
- formation of methemoglobin ([8]; 24 h of incubation): 64%
- methemoglobin formation with AAPH ([9]; 10 μg/L): 60.7%
- methemoglobin formation with AAPH ([9]; 50 μg/L): 54.5%
- astrocyte viability compared with the control (pure AAPH) [10]: statistically significant increase
- Vmax(i) BuChE ([3]; compound at its IC50): 0.144 ± 0.036 A/min
- Vmax(i) BuChE ([3]; compound at ½ IC50): 0.192 ± 0.059 A/min
- type of inhibition of BuChE [3]: same type of inhibition
